The experiment deals with T1, P2X2/3 receptors (Homo sapiens, UniProt P56373+Q9UBL9).
T1 sequence (Q9UBL9 1-471): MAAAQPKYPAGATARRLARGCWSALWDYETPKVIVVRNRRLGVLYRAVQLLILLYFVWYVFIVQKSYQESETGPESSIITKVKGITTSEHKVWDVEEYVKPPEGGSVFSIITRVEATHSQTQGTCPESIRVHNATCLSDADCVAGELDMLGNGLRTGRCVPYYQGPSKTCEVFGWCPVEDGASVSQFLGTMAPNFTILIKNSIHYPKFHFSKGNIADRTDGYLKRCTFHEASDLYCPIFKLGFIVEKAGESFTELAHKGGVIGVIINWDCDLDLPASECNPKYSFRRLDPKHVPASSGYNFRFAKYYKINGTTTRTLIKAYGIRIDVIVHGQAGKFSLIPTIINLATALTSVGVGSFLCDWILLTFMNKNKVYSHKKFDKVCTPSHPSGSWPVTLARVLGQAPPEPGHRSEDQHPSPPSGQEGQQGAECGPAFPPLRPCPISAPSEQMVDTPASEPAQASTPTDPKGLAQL
T1 sequence (P56373 1-397): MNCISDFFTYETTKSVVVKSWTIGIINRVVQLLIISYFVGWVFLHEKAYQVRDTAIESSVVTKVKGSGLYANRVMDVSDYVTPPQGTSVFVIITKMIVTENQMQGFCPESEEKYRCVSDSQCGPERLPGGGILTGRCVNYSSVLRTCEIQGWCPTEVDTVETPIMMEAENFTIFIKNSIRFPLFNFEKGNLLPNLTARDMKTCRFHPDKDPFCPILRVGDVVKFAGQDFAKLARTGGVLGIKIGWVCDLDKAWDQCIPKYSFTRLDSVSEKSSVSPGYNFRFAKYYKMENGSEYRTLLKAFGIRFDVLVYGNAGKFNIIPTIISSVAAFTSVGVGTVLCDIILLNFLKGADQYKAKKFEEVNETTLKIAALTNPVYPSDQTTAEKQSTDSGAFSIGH
Briefly: SyncroPatch 96 recording of P2X2/3 receptors in 1321N1 cells. As to conditions: 10 μM, 1321N1 cell, three applications with intermittent wash steps. The format is cell-based. On the technique in general: Patch clamp records ionic current or voltage across a cell membrane.

Regarding `Nc1ncnc2c1ncn2[C@@H]1O[C@H](COP(=O)(O)OP(=O)(O)OP(=O)(O)O)[C@@H](O)[C@H]1O` [ATP], the “activation of P2X2/3 receptors” value was “repeatedly activated”.

For the origin of these results see PMC3223389 (Frontiers in Pharmacology, 2011).
